Experimental data reported in PMC5490406, “Syntheses of Radioiodinated Pyrimidine-2,4,6-Triones as Potential Agents for Non-Invasive Imaging of Matrix Metalloproteinases” (Pharmaceuticals, 2017).

Legend:
human active MMP-2 = target: T1, human active MMP-2 (Homo sapiens, UniProt P08253); test: fluorometric in vitro MMP inhibition assay, MMP-2; format: biochemical
T1 sequence (P08253 110-660): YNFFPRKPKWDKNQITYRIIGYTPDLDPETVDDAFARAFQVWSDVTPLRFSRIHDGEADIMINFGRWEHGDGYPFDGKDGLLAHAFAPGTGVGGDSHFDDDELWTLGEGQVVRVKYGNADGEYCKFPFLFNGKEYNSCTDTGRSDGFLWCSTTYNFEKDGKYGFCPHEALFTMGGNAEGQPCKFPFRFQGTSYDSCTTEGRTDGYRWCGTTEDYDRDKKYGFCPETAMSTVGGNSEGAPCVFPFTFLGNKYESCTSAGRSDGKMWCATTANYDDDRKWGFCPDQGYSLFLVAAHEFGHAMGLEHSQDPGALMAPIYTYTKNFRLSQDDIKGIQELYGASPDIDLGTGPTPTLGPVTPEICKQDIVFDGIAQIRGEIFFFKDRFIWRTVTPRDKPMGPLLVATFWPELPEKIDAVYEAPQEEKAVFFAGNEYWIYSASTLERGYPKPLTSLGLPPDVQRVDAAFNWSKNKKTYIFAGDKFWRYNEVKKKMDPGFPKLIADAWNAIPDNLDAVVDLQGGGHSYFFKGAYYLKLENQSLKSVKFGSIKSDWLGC
Procedure: (§1) The MMP inhibition potencies of the barbituric acid derivatives 5a, 5b, 6, 9 and 10 were measured in fluorometric in vitro inhibition assays as described previously.
(§2) An aliquot of substrate (10 μL of a 50 μM solution) was then added to 90 μL of the preincubated MMP/inhibitor mixture, and the fluorescence was determined at 37 °C by following product release with time. The fluorescence changes were monitored using a Fusion Universal Microplate Analyzer (Packard Bioscience, Boston, MA, USA) with excitation and emission wavelengths set to 330 and 390 nm, respectively. Reaction rates were measured from the initial 10 min of the reaction profile where product release was linear with time and plotted as a function of inhibitor dose. From the resulting inhibition curves, the IC50 values for each inhibitor were calculated by non-linear regression analysis, performed using the Grace 5.1.8 software (Linux).

human active MMP-8 = human active MMP-8 (Homo sapiens, UniProt P22894); test: fluorometric in vitro MMP inhibition assay, MMP-8; format: biochemical
Procedure: as §1, §2

human active MMP-9 = human active MMP-9 (Homo sapiens, UniProt P14780); test: fluorometric in vitro MMP inhibition assay, MMP-9; format: biochemical
Procedure: as §1, §2

human active MMP-13 = human active MMP-13 (Homo sapiens, UniProt P45452); test: fluorometric in vitro MMP inhibition assay, MMP-13; format: biochemical
Procedure: as §1, §2

human active MMP-14 = human active MMP-14 (Homo sapiens, UniProt P50281); test: fluorometric in vitro MMP inhibition assay, MMP-14; format: biochemical
Procedure: as §1, §2

[1] = calculated logP/logD (ACD/Chemsketch ACD/Labs 6.00); conditions: relative to 12
[2] = IC50 MMP-2, mean ± SD of three assays
[3] = IC50 MMP-9, mean ± SD of three assays
[4] = IC50 MMP-2 (range given jointly for MMP-2 and -9), summary of Table 1
[5] = IC50 MMP-9 (range given jointly for MMP-2 and -9), summary of Table 1

Sequence of human active MMP-9 (P14780 107-707 limits assumed): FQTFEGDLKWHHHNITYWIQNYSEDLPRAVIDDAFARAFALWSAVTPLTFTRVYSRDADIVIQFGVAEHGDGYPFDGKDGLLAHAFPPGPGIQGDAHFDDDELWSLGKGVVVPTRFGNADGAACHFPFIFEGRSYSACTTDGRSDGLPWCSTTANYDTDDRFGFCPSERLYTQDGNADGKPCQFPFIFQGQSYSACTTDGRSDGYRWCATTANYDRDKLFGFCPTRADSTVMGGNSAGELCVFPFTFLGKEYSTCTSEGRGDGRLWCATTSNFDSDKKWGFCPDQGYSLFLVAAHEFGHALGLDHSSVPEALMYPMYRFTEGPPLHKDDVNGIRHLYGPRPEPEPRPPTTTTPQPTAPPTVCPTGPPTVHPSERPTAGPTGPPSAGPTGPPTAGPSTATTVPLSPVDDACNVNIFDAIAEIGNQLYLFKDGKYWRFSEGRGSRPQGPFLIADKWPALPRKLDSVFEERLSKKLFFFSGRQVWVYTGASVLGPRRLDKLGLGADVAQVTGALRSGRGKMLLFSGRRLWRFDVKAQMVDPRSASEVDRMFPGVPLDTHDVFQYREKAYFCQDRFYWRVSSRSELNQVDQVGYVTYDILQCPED
Sequence of human active MMP-8 (P22894 101-467): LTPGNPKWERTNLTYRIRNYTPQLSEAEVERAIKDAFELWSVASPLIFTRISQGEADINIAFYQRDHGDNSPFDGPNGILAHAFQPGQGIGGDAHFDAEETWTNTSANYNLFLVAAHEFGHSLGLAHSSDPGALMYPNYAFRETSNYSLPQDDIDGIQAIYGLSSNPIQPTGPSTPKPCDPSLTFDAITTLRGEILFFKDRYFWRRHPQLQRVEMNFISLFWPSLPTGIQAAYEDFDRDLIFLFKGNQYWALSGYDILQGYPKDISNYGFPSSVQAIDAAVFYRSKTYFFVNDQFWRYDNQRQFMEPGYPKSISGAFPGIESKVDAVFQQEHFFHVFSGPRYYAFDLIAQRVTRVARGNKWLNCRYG

Row | Compound | IC50 (human active MMP-2; [2]) | IC50 (human active MMP-8) | IC50 (human active MMP-9; [3]) | IC50 (human active MMP-13) | IC50 (human active MMP-14) | melting point | increased water solubility compared to 12, inferred from clogD shift [1] | IC50 (human active MMP-2; [4]) | IC50 (human active MMP-9; [5])
1 | O=C(O)CCN1CCN(C2(c3ccc(Oc4ccc(I)cc4)cc3)C(=O)NC(=O)NC2=O)CC1 [compound 9, 5-[4-(2-Carboxyethyl)piperazin-1-yl]-5-[4-(4-iodophenoxy)phenyl]pyrimidine-2,4,6-trione] | 29 ± 2 nM | 1170 ± 80 nM | 1.3 ± 0.2 nM | 362 ± 24 nM | 49 nM | 236 to 242 °C (dec.) | approximately 400 fold |  | 
2 | O=C(O)CCN1CCN(C2(c3ccc(I)cc3)C(=O)NC(=O)NC2=O)CC1 [5b, 5-[4-(2-Carboxyethyl)piperazin-1-yl]-5-(4-iodophenyl)pyrimidine-2,4,6-trione] | 1200 ± 340 nM |  | 1600 ± 600 nM |  |  | 139 to 142 °C |  | 670 to 1600 nM | 670 to 1600 nM
3 | O=C1NC(=O)C(c2ccc(Oc3ccc(I)cc3)cc2)(N2CCN(CCOCCOCCOCCF)CC2)C(=O)N1 [compound 10, 5-(4-(2-(2-(2-(2-Fluoroethoxy)ethoxy)ethoxy)ethyl)piperazin-1-yl)-5-(4-(4-iodophenoxy)phenyl)-pyrimidine-2,4,6-trione] | 23 ± 5 nM | 146 ± 48 nM | 17 ± 5 nM | 28 ± 11 nM |  | 176 to 177 °C |  |  | 
4 | O=C1NC(=O)C(c2ccc(O)c(I)c2)(N2CCN(CCO)CC2)C(=O)N1 [compound 6, 5-(4-Hydroxy-3-iodophenyl)-5-[4-(2-hydroxyethyl)piperazin-1-yl]pryrimidine-2,4,6-trione] | 670 ± 210 nM |  | 1300 ± 320 nM |  |  | 168 to 170 °C (dec.) |  | 670 to 1600 nM | 670 to 1600 nM
5 | O=C1NC(=O)C(c2ccc(I)cc2)(N2CCN(CCO)CC2)C(=O)N1 [5a, 5-[4-(2-Hydroxyethyl)piperazin-1-yl]-5-(4-iodophenyl)pryrimidine-2,4,6-trione] | 10 ± 3 nM |  | 550 ± 180 nM |  |  | 168 to 172 °C |  |  | 
